Assay [1] deals with T1, Recombinant PDE4B (Homo sapiens, UniProt Q07343).
T1 construct: purchased Sigma Aldrich Co Ltd
Put plainly: In vitro PDE4B enzymatic assay (cAMP dynamic 2 kit). Format: biochemical. To be noted: average of three determinations ± SEM. How it is done:
(§1) Recombinant PDE4B/D was from Sigma Aldrich Co Ltd. A PDE4B/D inhibitors assay was performed using a cAMP dynamic 2 kit. Serial dilutions of isolated compounds with DMSO (100-fold of final concentration) were prepared. Compound solutions were diluted 20-fold with cAMP assay buffer (50 mM Tris, 6 mM MgCl2, pH 7.5). Enzyme solution ([…] of 30 ng/mL or cAMP assay buffer for the control) and […] of isolated compounds (5-fold concentration of final concentration) were added to each well of the 96-well micro assay plate and pre-incubated at room temperature for 10 min. The enzymatic reactions were started by adding […] of cAMP solution (150 nM in cAMP assay buffer) or cAMP assay buffer and incubated at 37 °C for 30 min. The enzymatic reaction was terminated by placing the assay plate on ice. The concentration of cAMP was quantified by measurement of fluorescence intensity using Spectrophotometer Model-SP-2558 (Acton Research, Acton, MA, USA).

The target in assay [2] is T2, Recombinant PDE4D (Homo sapiens, UniProt Q08499).
T2 construct: purchased Sigma Aldrich Co Ltd
The assay is described as follows: In vitro PDE4D enzymatic assay (cAMP dynamic 2 kit). It is filed as biochemical. To be noted: average of three determinations ± SEM. How it is done: as §1

Assay [3] relates to NO production on RAW264.7 macrophages. The assay is described as follows: Inhibition of NO production in LPS-stimulated RAW264.7 cells (Griess). Format: cell-based, murine. To be noted: highest concentration 50 µM. How it is done: Cell RAW264.7 (ATCC, Manassas, VA, USA) was cultured for 48 h in DMEM (Dulbecco's Modified Eagle Medium) medium at 37 °C, 5% CO2, and 10% for fetal bovine serum (FBS). Then, the cell fluid was transferred to 96 wells with a density of 2.5 × 10^5 cells/well. Cells were stimulated with 2 μL lipopolysaccharide (LPS 0.1 mg/mL) for 24 h and supplemented with different concentrations of drugs/reagents. Cardamonin is used as a control (+) and DMSO as a control (-). The suspension of the cell was incubated with Griess reagent, NaNO2 at different concentrations to build the calibration curve. Measure the reaction response at λ = 570 nm. The inhibition rate of NO (%) production is determined by the formula: %UC = ([XTB]sample - [[…]) × 100 In which [XTB] is the average NO concentration calculated based on the standard NaNO2. […] Formazan crystalline metabolites are dissolved in dimethyl sulfoxide (DMSO, Sigma-Aldrich, Saint Louis, MO, USA) and measured optical density at λ = 540/720 nm on Infinite F50 device (Tecan, Männedorf, Switzerland).

Assay [4] concerns NO production. Details: method as in PMID 22902267. To be noted: read-out: IC50 of inhibition of NO production; cited from earlier work.
For assay [5], the system named is NO production in RAW264.7 cells induced by LPS. Also on record: method as in PMID 31470215. The conditions noted are these: read-out: IC50 of inhibition of NO production; cited from earlier work.

Results on 6 compounds are retold here after PMC10650832, “Natural Phosphodiesterase-4 Inhibitors with Potential Anti-Inflammatory Activities from Millettia dielsiana” (Molecules, 2023).

T1 sequence (Q07343 whole entry, species assumed): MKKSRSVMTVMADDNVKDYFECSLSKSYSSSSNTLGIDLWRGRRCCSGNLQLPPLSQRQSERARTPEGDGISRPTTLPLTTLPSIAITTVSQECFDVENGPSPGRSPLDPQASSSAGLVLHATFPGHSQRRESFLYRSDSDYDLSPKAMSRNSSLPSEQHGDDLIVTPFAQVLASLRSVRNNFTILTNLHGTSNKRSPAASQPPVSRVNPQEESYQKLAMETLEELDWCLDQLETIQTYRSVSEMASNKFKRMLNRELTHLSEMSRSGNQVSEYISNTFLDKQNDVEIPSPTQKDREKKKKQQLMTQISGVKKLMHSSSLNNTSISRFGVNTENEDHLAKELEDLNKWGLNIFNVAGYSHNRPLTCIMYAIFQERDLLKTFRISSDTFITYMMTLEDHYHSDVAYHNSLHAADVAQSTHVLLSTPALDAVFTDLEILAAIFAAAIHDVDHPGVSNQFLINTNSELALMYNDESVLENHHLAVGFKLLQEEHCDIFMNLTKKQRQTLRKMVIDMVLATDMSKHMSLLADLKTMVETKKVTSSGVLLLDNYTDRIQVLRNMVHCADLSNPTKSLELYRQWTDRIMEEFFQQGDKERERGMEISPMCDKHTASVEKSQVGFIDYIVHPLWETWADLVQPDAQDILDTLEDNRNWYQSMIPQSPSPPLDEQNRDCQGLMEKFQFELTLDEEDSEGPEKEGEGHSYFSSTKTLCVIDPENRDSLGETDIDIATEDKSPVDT
T2 sequence (Q08499 whole entry, species assumed): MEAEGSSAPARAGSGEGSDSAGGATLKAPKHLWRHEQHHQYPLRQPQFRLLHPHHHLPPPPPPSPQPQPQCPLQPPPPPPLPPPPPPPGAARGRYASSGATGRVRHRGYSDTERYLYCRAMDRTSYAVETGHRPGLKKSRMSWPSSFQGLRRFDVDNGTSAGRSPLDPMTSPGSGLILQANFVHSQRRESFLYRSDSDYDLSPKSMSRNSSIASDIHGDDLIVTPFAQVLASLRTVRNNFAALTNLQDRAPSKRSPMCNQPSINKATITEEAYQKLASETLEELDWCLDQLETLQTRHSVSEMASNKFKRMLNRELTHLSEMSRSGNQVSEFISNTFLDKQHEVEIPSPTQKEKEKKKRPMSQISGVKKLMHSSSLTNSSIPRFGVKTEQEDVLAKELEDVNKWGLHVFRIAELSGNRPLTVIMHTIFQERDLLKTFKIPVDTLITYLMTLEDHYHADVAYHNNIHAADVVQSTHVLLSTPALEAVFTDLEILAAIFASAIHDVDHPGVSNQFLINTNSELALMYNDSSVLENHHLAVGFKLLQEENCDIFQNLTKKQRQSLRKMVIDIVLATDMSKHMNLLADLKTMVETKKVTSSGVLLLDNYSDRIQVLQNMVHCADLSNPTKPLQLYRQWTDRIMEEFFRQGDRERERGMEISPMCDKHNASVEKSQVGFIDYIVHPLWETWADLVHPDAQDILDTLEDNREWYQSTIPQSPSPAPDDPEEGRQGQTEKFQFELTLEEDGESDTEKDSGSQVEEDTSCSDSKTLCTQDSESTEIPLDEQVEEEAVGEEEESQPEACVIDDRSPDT

For “5,7,4′-trihydroxyisoflavone 7-O-β-D-apiofuranosyl-(1→6)-β-D-glucopyranoside [D50]”, the IC50 in assay [1] (read-out: IC50 of inhibition of PDE4B) came to 6.56 ± 0.7 µM; in assay [2] (read-out: IC50 of inhibition of PDE4D), 11.7 ± 1.3 µM; in assay [3] it was 5.4 ± 0.9 µM. For `C[C@H]1[C@H](C)CC[C@]2(C(=O)O)CC[C@]3(C)C(=CC[C@@H]4[C@@]5(C)CC[C@H](OC(=O)/C=C/c6ccc(O)cc6)C(C)(C)[C@@H]5CC[C@]43C)[C@H]12` (relative stereo) [D15, trans-3-O-p-hydroxycinnamoyl ursolic acid], the “IC50 of inhibition of PDE4B” value in assay [1] was “did not show activity”. In addition, in assay [2], the “IC50 of inhibition of PDE4D” value is listed as “did not show activity”. `COc1cc(OC)c(-c2coc3c4c(c(OC)cc3c2=O)OC(C)(C)C=C4)cc1OC` [D30, Millesianin C]: the IC50 in assay [4] was 1.37 µM. Consider `Oc1ccc([C@H]2CCc3ccc(O)cc3O2)cc1` [D10, Tupichinol C], for which the IC50 in assay [5] is 38.4 µM.

With `COc1ccc([C@H]2COc3cc(O)ccc3C2)c(O)c1` [D9, (3S)-Vestitol], the IC50 in assay [5] is 16 µM. Regarding `O=C(/C=C/c1ccc(O)cc1)c1ccc(O)cc1O` [D4, Isoliquiritigenin], the half-inhibitory concentration (IC50) in assay [5] was 31.2 µM.
